From ChEMBL document CHEMBL6071196, “Semisynthetic Tetramate-Containing Fungal Metabolites with Activity against Trichomonas vaginalis and Mycoplasma genitalium” (ACS Med Chem Lett, 2024) come the findings set out here.

In general, inhibition refers to how much of the control response was suppressed. In general, EC50 refers to the concentration that produces a half-maximal response. Usually MIC90 stands for the lowest concentration that inhibits either 90% of growth or 90% of the strains tested, depending on the study. One may read the IC50 as the concentration needed to halve the response being measured.

Converted amounts (≈) assume the structure as drawn. The source made the active and inactive calls. The calls are words filed in the database; no cut-off is given here.

Series [1] relates to Mycoplasma genitalium. The series can be described thus: Antibacterial activity against Mycoplasma genitalium G37C assessed as growth inhibition at 0.6 uM measured after 1 month relative to control. In kind it is functional, organism-based. Particulars: Mycoplasmoides genitalium, time 1.0 months.
Series [2] concerns Mycoplasma genitalium. The experiment in a line: Antibacterial activity against Mycoplasma genitalium G37C assessed as growth inhibition at 0.4 uM relative to control. Particulars: Mycoplasmoides genitalium. In kind it is functional.
Series [3] deals with Trichomonas vaginalis. The series can be described thus: Anti-trichomonal activity against Trichomonas vaginalis assessed as inhibition of parasite growth incubated for 18 hrs. Type of series: functional, organism-based.
Series [4] concerns Mycoplasma genitalium. The experiment in a line: Antibacterial activity against Mycoplasma genitalium G37C assessed as bacterial growth inhibition incubated for 7 days by phenol red reagent based microbroth dilution assay. Particulars: Mycoplasmoides genitalium, 168 h, time 7 day. In kind it is functional. On the technique in general: Dilution methods test growth across graded concentrations, often in twofold steps.

The nature of series [5]: Selectivity index, ratio of IC50 for cytotoxicity against african green monkey Vero cells incubated for 48 hrs by celltiter blue assay to EC50 for anti-trichomonal activity against Trichomonas vaginalis assessed as inhibition of parasite growth incubated for 18 hrs. Type of series: toxicity, cell-based. Particulars: read-out: Ratio IC50/EC50.
A short description of series [6]: Selectivity index, ratio of IC50 for cytotoxicity against african green monkey Vero cells incubated for 48 hrs by celltiter blue assay to MIC for antibacterial activity against Mycoplasma genitalium G37C assessed as bacterial growth inhibition incubated for 7 days by phenol red reagent based microbroth dilution assay. Type of series: toxicity, cell-based. Particulars: read-out: Selectivity Index. A general note: Alamar Blue is a resazurin reagent that responds to reducing activity.

The test system of series [7] is Mycoplasma genitalium. The experiment in a line: Antibacterial activity against Mycoplasma genitalium Sea-2 assessed as bacterial growth inhibition incubated for 30 mins by qPCR analysis. In kind it is functional, organism-based. Particulars: Mycoplasmoides genitalium, Sea-2, 0.5 h.
For series [8], the system named is Mycoplasma genitalium. The series can be described thus: Antibacterial activity against Mycoplasma genitalium G37C assessed as bacterial growth inhibition incubated for 30 mins by qPCR analysis. Type of series: functional, organism-based. Particulars: Mycoplasmoides genitalium, 0.5 h. In general terms: In qPCR the cycle at which signal appears reflects the starting amount.

Series [9] can be described thus: Selectivity index, ratio of IC50 for cytotoxicity against african green monkey Vero cells incubated for 48 hrs by celltiter blue assay to IC50 for antibacterial activity against Mycoplasma genitalium G37C assessed as bacterial growth inhibition incubated for 30 mins by qPCR analysis. Particulars: read-out: Ratio IC50. In kind it is toxicity, cell-based.
For series [10], the system named is Mycoplasma genitalium. The experiment in a line: Antibacterial activity against Mycoplasma genitalium G37C assessed as growth inhibition at 2 uM relative to control. In kind it is functional. Particulars: Mycoplasmoides genitalium.
Series [11] is described as follows: Selectivity index, ratio of IC50 for cytotoxicity against african green monkey Vero cells incubated for 48 hrs by celltiter blue assay to IC50 for antibacterial activity against Mycoplasma genitalium Sea-1 assessed as bacterial growth inhibition incubated for 30 mins by qPCR analysis. Type of series: toxicity, cell-based. Particulars: read-out: Ratio IC50.
A short description of series [12]: Selectivity index, ratio of IC50 for cytotoxicity against african green monkey Vero cells incubated for 48 hrs by celltiter blue assay to IC50 for antibacterial activity against Mycoplasma genitalium Sea-2 assessed as bacterial growth inhibition incubated for 30 mins by qPCR analysis. In kind it is toxicity, cell-based. Particulars: read-out: Ratio IC50.
The subject of series [13] is Mycoplasma genitalium. The series can be described thus: Antibacterial activity against Mycoplasma genitalium G37C assessed as growth inhibition at 3 uM measured after 1 month relative to control. Type of series: functional, organism-based. Particulars: Mycoplasmoides genitalium, time 1.0 months.
The subject of series [14] is Mycoplasma genitalium. The series can be described thus: Antibacterial activity against Mycoplasma genitalium Sea-1 assessed as bacterial growth inhibition incubated for 30 mins by qPCR analysis. Particulars: Mycoplasmoides genitalium, Sea-1, 0.5 h. In kind it is functional, organism-based.

With `C/C=C/C=C/[C@H]1C(C)=C[C@H]2C[C@@H](C)CC[C@@H]2[C@@]1(C)/C(O)=C1\C(=O)[C@@H](CO)N(C)C1=O`, the inhibition result in series [1] was “inactive”. Further, in series [2], the inhibition at 0.4 µM stood at 90%. Also, the EC50 in [3] was 1800 nM. In series [4], the MIC90 stood at 0.4 µM (≈ 0.165 µg/mL). Further, the selectivity ratio at 48 h in [5] worked out at 32.1; in series [6] it was 141.
For `C/C=C/C=C/[C@H]1C(C)=C[C@H]2C[C@@H](C)CC[C@@H]2[C@@]1(C)/C(O)=C1\C(=O)[C@H](COCc2cn(CCc3ccc(O)cc3)nn2)N(C)C1=O`, the IC50 in series [7] is 1000 nM; in series [8], 1200 nM; in series [14], 800 nM. Besides, the EC50 in series [3] is > 10000 nM. Also, the MIC90 in series [4] came out at 2.6 µM (≈ 1.6 µg/mL). For the same compound, the selectivity ratio at 48 h was determined as 64 in series [9], 96 in series [11], 77 in series [12] and 29.7 in series [6]. Moreover, the inhibition at 2 µM in series [10] was 90%. For the same compound, the inhibition result in series [13] is “inactive”.
